In this experiment the target is Tyrosine-protein phosphatase non-receptor type 7 (Homo sapiens) (UniProt P35236). The experiment is described as follows: HePTP phosphatase inhibition by analogues, SAR follow-up, selectivity assay for VHR1 inhibitor project, biochemical, DiFMUP fluorescence (AID 2082). Conditions: recombinant HePTP.

The structures appear in SMILES notation.

Tyrosine-protein phosphatase non-receptor type 7 (Homo sapiens), sequence (P35236 whole entry, looked up): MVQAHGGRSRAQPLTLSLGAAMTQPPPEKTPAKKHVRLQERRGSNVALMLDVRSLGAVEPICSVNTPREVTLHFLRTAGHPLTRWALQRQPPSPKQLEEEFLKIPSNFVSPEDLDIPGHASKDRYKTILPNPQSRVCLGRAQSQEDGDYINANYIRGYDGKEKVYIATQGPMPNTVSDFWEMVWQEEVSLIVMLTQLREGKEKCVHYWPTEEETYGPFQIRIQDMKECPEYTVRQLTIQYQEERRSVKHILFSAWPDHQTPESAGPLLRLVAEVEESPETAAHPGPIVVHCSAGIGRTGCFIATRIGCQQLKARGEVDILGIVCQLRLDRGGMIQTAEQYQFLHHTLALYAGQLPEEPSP

Consider `O=C1/C(=C/c2cn(-c3ccccc3)nc2-c2ccc(OCc3ccc(Cl)cc3)cc2)SC(=S)N1CCS(=O)(=O)O`, for which the IC50 is 620 nM.

As to `O=C1/C(=C/c2cn(-c3ccccc3)nc2-c2ccc(S(=O)(=O)N3CCCCC3)cc2)SC(=S)N1CCS(=O)(=O)O`, the IC50 was 2400 nM.

As for `O=C1/C(=C/c2cn(-c3ccccc3)nc2-c2ccc(OCc3ccccc3Cl)cc2)SC(=S)N1CCS(=O)(=O)O`, the IC50 is 1200 nM.

For the molecule `O=C1/C(=C/c2cn(-c3ccccc3)nc2-c2ccc(OCc3ccccc3F)cc2)SC(=S)N1CCS(=O)(=O)O`, the IC50 is 870 nM.

With `O=C1/C(=C/c2cn(-c3ccccc3)nc2-c2ccc(OCc3ccccc3)cc2)SC(=S)N1CCS(=O)(=O)O`, the IC50 is 1500 nM.
